A short description of data set [1]: Urinary excretion rate in mice. The class given is in vivo, ICR male mice. Conditions: mouse, sc, 20 mg/kg subcutaneous, urine up to 6 hours, bioassay. The protocol:
ICR male mice (body weight: 20-30 g) were used. Each compound was dissolved in an M/15 phosphate buffer (pH 7.0) and administered in an amount of 20 mg/kg by the subcutaneous route. Urine was collected up to 6 hours after the administration. The concentration of the compound was determined by the bioassey technique (the agar-well method) using Pseudomonas aeruginosa as a test microorganism. On the basis of the thus-determined concentration, its excreted amount was obtained. The urinary excretion rate was then calculated from the excreted amount based on the amount administered.

The test system of data set [2] is Proteus morganii EP-14. The data set is described as follows: Antibacterial activities (MIC), Proteus morganii EP-14. Conditions: Morganella morganii, EP14. Format: cell-based. The source says: (§1) (1) Antibacterial activities (MIC):
Data set [3] relates to Pseud. aeruginosa EP-01. The experiment in a line: Antibacterial activities (MIC), Pseud. aeruginosa EP-01. The class given is cell-based. Conditions: Pseudomonas aeruginosa, EP01.
From the text: as §1

Data set [4] relates to Kleb. pneumoniae EK-6. The data set is described as follows: Antibacterial activities (MIC), Kleb. pneumoniae EK-6. Format: cell-based. Particulars: Klebsiella pneumoniae, EK6.
From the text: as §1

A short description of data set [5]: Solubility in water. The class given is physicochemical. Conditions: in distilled water at 25° C.
Data set [6] concerns Staph. aureus 209-P. The experiment in a line: Antibacterial activities (MIC), Staph. aureus 209-P. Format: cell-based. Particulars: Staphylococcus aureus.
From the text: as §1

Data set [7] has as its system Escher. coli NIHJ. The data set is described as follows: Antibacterial activities (MIC), Escher. coli NIHJ. Format: cell-based. Particulars: Escherichia coli.
From the text: as §1

In data set [8] the test system is Ser. marcescens ES-75. The data set is described as follows: Antibacterial activities (MIC), Ser. marcescens ES-75. Conditions: Serratia marcescens, ES75. Format: cell-based.
From the text: as §1

The nature of data set [9]: Acute toxicity LD50 (mouse, oral). Conditions: in vivo. The source says: The acute toxicity values [LD50 (mouse, oral)] of the following compounds were each 4 g/kg or greater;

Experimental findings from US4546176A, “7-Carboxymethoxyphenylacetamido-3-cephem derivatives and antibacterial preparations containing the same” (Eisai Co., Ltd., priority 1982, dated 1985) are described below.

As usually defined, the MIC is the smallest concentration in the dilution series that meets the test's criterion for growth inhibition. Read a high MIC as weaker potency. One may read the solubility as the dissolved amount per volume that the medium holds. Usually LD50 stands for the dose expected to kill half of the subjects tested.

Each structure is given as a SMILES string. In brackets after ≈: the same amount, converted by molar mass.

Turning to `CO[C@@]1(NC(=O)[C@H](NC(=O)c2c(C)oc3cc(O)c(O)cc3c2=O)c2ccc(OCC(=O)O)cc2)C(=O)N2C(C(=O)[O-])=C(C[n+]3ccc(C(N)=O)cc3)CS[C@@H]21` [Example 49, 7β-[D-2-(4-Carboxymethoxyphenyl)-2-(6,7-dihydroxy-2-methyl-4-oxo-4H-1-benzopyran-3-carboxamido)-acetamido]-7α-methoxy-3-(4-carbamoylpyridinium)-methyl-3-cephem-4-carboxylate], the dose excreted at 6 h in data set [1] is 35%.
Take `O=C(O)COc1ccc([C@@H](NC(=O)c2coc3cc(O)c(O)cc3c2=O)C(=O)N[C@@H]2C(=O)N3C(C(=O)O)=C(CSc4nnnn4CC(=O)O)CS[C@H]23)cc1` [Example 8, Trisodium 7β-[D-2-(4-carboxymethoxyphenyl)-2-(6,7-dihydroxy-4-oxo-4H-1-benzopyran-3-carboxamido)-acetamido]-3-(1-carboxymethyl-5-tetrazolyl)thiomethyl-3-cephem-4-carboxylate]: the MIC was 1.56 µg/mL in [2]; 0.1 µg/mL in [3]; at most 0.05 µg/mL in [4]; 50 µg/mL in data set [6]; 0.8 µg/mL in [7]; 0.2 µg/mL in [8]. In data set [1], this molecule displayed a dose excreted at 6 h of 20%. Besides, in [5], the solubility is at least 300 mg/mL.
For `Cn1nnnc1SCC1=C(C(=O)O)N2C(=O)[C@@H](NC(=O)[C@H](NC(=O)c3coc4cc(O)c(O)cc4c3=O)c3ccc(OCC(=O)O)cc3)[C@H]2SC1` [Example 4, Disodium 7β-[D-2-(4-carboxymethoxyphenyl)-2-(6,7-dihydroxy-4-oxo-4H-1-benzopyran-3-carboxamido)-acetamido]-3-(1-methyl-5-tetrazolyl)thiomethyl-3-cephem-4-carboxylate], the MIC in data set [2] is 0.8 µg/mL; in [3] it was at most 0.05 µg/mL; in [4], at most 0.05 µg/mL; in [6], 6.25 µg/mL; in data set [7] it was 0.8 µg/mL; in data set [8], 0.2 µg/mL. Besides, in [5], the solubility was at least 200 mg/mL.
With `Cc1oc2cc(O)c(O)cc2c(=O)c1C(=O)N[C@@H](C(=O)N[C@@H]1C(=O)N2C(C(=O)[O-])=C(C[n+]3ccc(C(=O)O)cc3)CS[C@H]12)c1ccc(OCC(=O)O)cc1` [Example 55, Disodium 7β-[D-2-(4-carboxymethoxyphenyl)-2-(6,7-dihydroxy-2-methyl-4-oxo-4H-1-benzopyran-3-carboxamido)acetamido]-3-(4-carboxypyridinium)-methyl-3-cephem-4-carboxylate], the MIC is 6.25 µg/mL in [2]; at most 0.05 µg/mL in data set [3]; at most 0.05 µg/mL in [4]; 100 µg/mL in data set [6]; 0.4 µg/mL in data set [7]; 0.4 µg/mL in data set [8]. The same molecule had an LD50 in data set [9] of at least 4000 mg/kg.
Take `O=C(O)COc1ccc([C@@H](NC(=O)c2coc3c(O)c(O)ccc3c2=O)C(=O)N[C@@H]2C(=O)N3C(C(=O)O)=C(CSc4nnnn4CC(=O)O)CS[C@H]23)cc1` [Example 20, Trisodium 7β-[D-2-(4-carboxymethoxyphenyl)-2-(7,8-dihydroxy-4-oxo-4H-1-benzopyran-3-carboxamido)-acetamido]-3-(1-carboxymethyl-5-tetrazolyl)thiomethyl-3-cephem-4-carboxylate]: the MIC in data set [2] came out at 6.25 µg/mL; in data set [3], 0.8 µg/mL; in [4], 0.1 µg/mL; in [6] it was 100 µg/mL; in data set [7], 0.8 µg/mL; in data set [8], 0.8 µg/mL. The dose excreted at 6 h in data set [1] was determined as 16%.
Turning to `CC(=O)OCC1=C(C(=O)O)N2C(=O)[C@@H](NC(=O)[C@H](NC(=O)c3coc4cc(O)c(O)cc4c3=O)c3ccc(OCC(=O)O)cc3)[C@H]2SC1` [Example 2], in data set [5], the solubility is at least 200 mg/mL.
In the case of `Cc1oc2cc(O)c(O)cc2c(=O)c1C(=O)N[C@@H](C(=O)N[C@@H]1C(=O)N2C(C(=O)[O-])=C(C[n+]3ccc(C(N)=O)cc3)CS[C@H]12)c1ccc(OCC(=O)O)cc1` [Example 57, 7β-[D-2-(4-Carboxymethoxyphenyl)-2-(6,7-dihydroxy-2-methyl-4-oxo-4H-1-benzopyran-3-carboxamido)acetamido]-3-(4-carbamoylpyridinium)methyl-3-cephem-4-carboxylate], the LD50 in [9] is at least 4000 mg/kg.
On to `Cc1oc2cc(O)c(O)cc2c(=O)c1C(=O)N[C@@H](C(=O)N[C@@H]1C(=O)N2C(C(=O)[O-])=C(C[n+]3ccccc3)CS[C@H]12)c1ccc(OCC(=O)O)cc1` [Example 40, Sodium 7β-[D-2-(4-carboxymethoxyphenyl)-2-(6,7-dihydroxy-2-methyl-4-oxo-4H-1-benzopyran-3-carboxamido)acetamido]-3-pyridiniummethyl-3-cephem-4-carboxylate], for which the MIC in data set [2] came to 12.5 µg/mL; in [3] it was 0.2 µg/mL; in data set [4], 0.1 µg/mL; in data set [6], 100 µg/mL; in [7], 0.8 µg/mL; in data set [8] it was 0.6 µg/mL. This molecule also had a dose excreted at 6 h in [1] of 39%. Also, the solubility in [5] was at least 300 mg/mL.
As for `NC(=O)c1cc[n+](CC2=C(C(=O)[O-])N3C(=O)[C@@H](NC(=O)[C@H](NC(=O)c4coc5cc(O)c(O)cc5c4=O)c4ccc(OCC(=O)O)cc4)[C@H]3SC2)cc1` [Example 45, Sodium 7β-[D-2-(4-carboxymethoxyphenyl)-2-(6,7-dihydroxy-4-oxo-4H-1-benzopyran-3-carboxamido)-acetamido]-3-(4-carbamoylpyridinium)methyl-3-cephem-4-carboxylate], the minimum inhibitory concentration (MIC) in [2] is 6.25 µg/mL; in data set [3], 0.1 µg/mL; in data set [4], at most 0.05 µg/mL; in data set [6], 25 µg/mL; in data set [7] it was 0.8 µg/mL; in data set [8], 0.8 µg/mL. The molecule also returned a dose excreted at 6 h in data set [1] of 38%. For the same molecule, the solubility in data set [5] was at least 300 mg/mL.
Consider `O=C(O)COc1ccc([C@@H](NC(=O)c2coc3cc(O)c(O)cc3c2=O)C(=O)N[C@@H]2C(=O)N3C(C(=O)[O-])=C(C[n+]4ccc(CCS(=O)(=O)O)cc4)CS[C@H]23)cc1` [Example 46, Disodium 7β-[D-2-(4-carboxymethoxyphenyl)-2-(6,7-dihydroxy-4-oxo-4H-1-benzopyran-3-carboxamido)-acetamido]-3-[4-(2-sulfoethyl)pyridinium]methyl-3-cephem-4-carboxylate], for which the MIC in data set [2] was 25 µg/mL; in [3], 0.4 µg/mL; in [4], at most 0.05 µg/mL; in [6], 50 µg/mL; in data set [7], 0.4 µg/mL; in data set [8], 0.8 µg/mL. This molecule also had a dose excreted at 6 h in data set [1] of 62%. Besides, the solubility in data set [5] is at least 300 mg/mL.
Turning to `Cc1oc2cc(O)c(O)cc2c(=O)c1C(=O)N[C@@H](C(=O)N[C@@H]1C(=O)N2C(C(=O)[O-])=C(C[n+]3ccc(C(N)=O)cc3)CS[C@H]12)c1ccc(OCC(=O)O)cc1` [Example 41, Sodium 7β-[D-2-(4-carboxymethoxyphenyl)-2-(6,7-dihydroxy-2-methyl-4-oxo-4H-1-benzopyran-3-carboxamido)acetamido]-3-(4-carbamoylpyridinium)-methyl-3-cephem-4-carboxylate], the MIC in [2] was 6.25 µg/mL; in data set [3], 0.2 µg/mL; in [4], at most 0.05 µg/mL; in [6], 50 µg/mL; in [7] it was 0.4 µg/mL; in data set [8] it was 0.4 µg/mL. In addition, the dose excreted at 6 h in data set [1] amounted to 74%. The molecule also returned a solubility in data set [5] of at least 300 mg/mL.
For `O=C(O)COc1ccc([C@@H](NC(=O)c2coc3cc(O)c(O)cc3c2=O)C(=O)N[C@@H]2C(=O)N3C(C(=O)[O-])=C(C[n+]4ccccc4)CS[C@H]23)cc1` [Example 44, Sodium 7β-[D-2-(4-carboxymethoxyphenyl)-2-(6,7-dihydroxy-4-oxo-4H-1-benzopyran-3-carboxamido)-acetamido]-3-pyridiniummethyl-3-cephem-4-carboxylate], the MIC in [2] is 25 µg/mL; in data set [3], 0.1 µg/mL; in data set [4], at most 0.05 µg/mL; in [6], 25 µg/mL; in data set [7] it was 0.8 µg/mL; in [8], 0.8 µg/mL. Moreover, in data set [1], the dose excreted at 6 h was found to be 40%. The molecule further displayed a solubility in data set [5] of at least 300 mg/mL.
Regarding `CCn1cc(C(=O)NC(C(=O)NC2C(=O)N3C(C(=O)O)=C(CSc4nnnn4C)CSC23)c2ccc(OCC(=O)O)cc2)c(=O)c2cc(OC(C)=O)c(OC(C)=O)cc21` (centres unmarked) [Example 11], the MIC in data set [2] is 0.4 µg/mL (≈ 0.47 µM); in data set [3], 0.1 µg/mL (≈ 0.118 µM); in data set [4], at most 0.05 µg/mL; in data set [6], 12.5 µg/mL (≈ 14.7 µM); in [7], 0.2 µg/mL (≈ 0.235 µM); in [8], at most 0.05 µg/mL. The LD50 in data set [9] was at least 4000 mg/kg.
Consider `Cc1oc2c(O)c(O)ccc2c(=O)c1C(=O)N[C@@H](C(=O)N[C@@H]1C(=O)N2C(C(=O)O)=C(CSc3nnnn3CC(=O)O)CS[C@H]12)c1ccc(OCC(=O)O)cc1` [Example 27, Trisodium 7β-[D-2-(4-carboxymethoxyphenyl)-2-(7,8-dihydroxy-2-methyl-4-oxo-4H-1-benzopyran-3-carboxamido)acetamido]-3-(1-carboxymethyl-5-tetrazolyl)-thiomethyl-3-cephem-4-carboxylate], for which the MIC in [2] was 6.25 µg/mL; in data set [3], 0.8 µg/mL; in data set [4], at most 0.05 µg/mL; in [6], 100 µg/mL; in data set [7], 0.4 µg/mL; in [8], 0.8 µg/mL. This molecule gave a dose excreted at 6 h in data set [1] of 30%.
